Measured values reported in patent US20140256771A1, “COMPOUNDS THAT MODULATE INTRACELLULAR CALCIUM” (CalciMedica, Inc., priority 2011, published 2014).
Like-named read-outs stand apart in the source and are kept apart here.

Legend:
Orai1/STIM1 = target: T1, Orai1/STIM1 (Homo sapiens, UniProt Q96D31); assay: Fluorescence-based assay of store-operated calcium entry in Orai1/STIM1 stable cells; format: cell-based; parameters: key to Orai1/STIM1 (IC50, μmol): A < 0.6 μmol; 0.6 μmol ≦ B ≦ 1.2 μmol; C > 1.2 μmol; — = no fit; settings: Table iii, HEK-293 cells stably expressing human STIM1 and Orai1, 50% inhibition of Peak-Basal fluo-4 signal; for IC50: read-out: Orai1/STIM1 (IC50, μmol)
T1 construct: expressed in transfected cells; host or cells: HEK-293
T1 sequence (Q96D31 whole entry): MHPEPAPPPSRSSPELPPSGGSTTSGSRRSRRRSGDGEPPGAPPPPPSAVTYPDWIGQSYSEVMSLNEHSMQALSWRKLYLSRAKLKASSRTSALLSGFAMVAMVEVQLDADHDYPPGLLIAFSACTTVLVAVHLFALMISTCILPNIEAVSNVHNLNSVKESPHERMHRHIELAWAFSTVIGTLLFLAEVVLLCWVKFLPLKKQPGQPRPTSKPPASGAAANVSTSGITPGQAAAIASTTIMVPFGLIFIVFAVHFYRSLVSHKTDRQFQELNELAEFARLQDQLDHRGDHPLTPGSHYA
Method: A. Fluorescence-based Assay of Store-Operated Calcium Entry in Orai1/STIM1 Stable Cells.
Cells stably expressing recombinant human STIM1 and Orai1 are generated by transfecting a human Orai1 expression plasmid (pcDNA3.1-Orai1-cmyc) into HEK-293 cells stably overexpressing human STIM1 (Roos et al. 2005 JCB 169(3): 435-445). Colonies of cells stably expressing both STIM1 and Orai1 proteins are selected and then subcloned by limiting dilution. Cells were cultured at 37° C./6% CO2 in complete medium with 10% FBS and appropriate selection markers.
The day prior to performing the assay Orai1/STIM1 stable cells are plated in 50 μL of complete medium at 90-95% confluence in a 384 well plate. Cells are grown at 37° C./6% CO2 overnight. On the day of the assay, 1.5 μM fluo-4-AM (Invitrogen) in complete medium is added to the cells, which are then incubated for 1 hour at RT. Cells are washed once in Ca^2+-free HBSS (Hank's buffered saline solution) and 35 μl of Ca^2+-free HBSS is added to each well. Test compounds are added to wells in a 10 μL Ca^2+-free HBSS solution, prepared at 4.5× the desired final concentration, and incubated for 30 minutes at RT. The initial baseline fluorescence signal is then measured with a FLIPR^384 (Molecular Devices) plate reader. Calcium entry is initiated by adding 5 μl of 10× CaCl2 (10 mM) in HBSS, and changes in cellular fluorescence are measured with the FLIPR^384 plate reader. In each well, the magnitude of the fluorescence signal as a result of calcium entry into the cell is determined by calculating the difference between the peak fluorescence signal measured after calcium addition and the initial baseline fluorescence signal (designated Peak-Basal). IC50 values are typically calculated as the concentration that inhibited 50% of the Peak-Basal signal (Table A).

RBL-2H3 cells = assay: Fluorescence-based assay of store-operated calcium entry in RBL-2H3 cells; format: cell-based, rat; parameters: key to RBL-2H3 (IC50, μmol): A < 0.6 μmol; 0.6 μmol ≦ B ≦ 1.2 μmol; C > 1.2 μmol; — = no fit; settings: thapsigargin store depletion, 50% inhibition of Upslope; for IC50: Rattus norvegicus, RBL-2H3, read-out: RBL-2H3 (IC50, μmol)
Method: B. Fluorescence-based Assay of Store-Operated Calcium Entry in RBL-2H3Cells.
RBL-2H3 cells are obtained from ATCC and maintained in complete medium with 10% FBS at 37° C./6% CO2.
The day prior to performing the assay, RBL-2H3 cells are plated in 50 μL of complete medium in a 384 well plate. Cells are grown at 37° C./6% CO2 overnight and grow to 50-60% confluence by the next day. On the assay day, 1.5 μM Fluo-4-AM dye (Invitrogen) in complete medium is added and incubated for 1 hour at RT. Cells are washed twice in Ca^2+-free HBSS buffer and 35 μL Ca^2+-free HBSS buffer is added to each well. 10 μL of a test compound prepared in a Ca^2+-free HBSS solution at 4.5× of the desired concentration is added to a well and incubated for 5 minutes at RT. 10 μL of thapsigargin prepared in a Ca^2+-free HBSS solution at 5.5× of the desired concentration (5.5 uM) is added to each well and incubated for an additional 25 minutes. The initial baseline fluorescence signal is measured with a FLIPR^384 (Molecular Devices) plate reader. 5 μL of 12× calcium in HBSS (12 mM) is added and changes in cellular fluorescence are measured with the FLIPR^384 plate reader. In each well, the change in the fluorescent signal as a function of time due to calcium entry into the cell is determined by calculating the difference between the fluorescent signal measured 7 seconds after calcium addition and the initial baseline fluorescence signal at time zero (t=0). This parameter is designated Upslope. The IC50 value is calculated as the concentration at which 50% of the Upslope is inhibited.

| IC50 (Orai1/STIM1) [nM] | IC50 (RBL-2H3 cells; Table iii) [nM] | Orai1/STIM1 (IC50, μmol) (Orai1/STIM1) | RBL-2H3 (IC50, μmol) (RBL-2H3 cells; Table iii) | IC50 (RBL-2H3 cells; Table iv) [nM] | Compound |
| --- | --- | --- | --- | --- | --- |
| < 600 | < 600 |  |  |  | Cn1nc(C(F)(F)F)cc1-c1ccc(NCc2c(F)cccc2F)cc1F |
| < 600 | < 600 |  |  |  | Cn1nc(C(F)(F)F)cc1-c1ccc(NCc2c(F)cncc2F)cc1F |
| < 600 | < 600 |  |  |  | Cn1nc(C(F)(F)F)cc1-c1ccc(NCc2ccc(F)cc2F)cc1F |
| < 600 | < 600 |  |  |  | Cn1nc(C(F)(F)F)cc1-c1ccc(NCc2c(F)cc(F)cc2F)cc1F |
| < 600 | < 600 |  |  |  | Cn1nc(C(F)(F)F)cc1-c1ccc(NCc2ccncc2F)cc1F |
| 600 to 1200 | < 600 |  |  |  | Cn1nc(C(F)(F)F)cc1-c1ccc(NCc2cncc(F)c2)cc1F |
| 600 to 1200 | < 600 |  |  |  | Cc1cnccc1CNc1ccc(-c2cc(C(F)(F)F)nn2C)c(F)c1 |
| > 1200 | 600 to 1200 |  |  |  | Cc1nnsc1CNc1ccc(-c2cc(C(F)(F)F)nn2C)c(F)c1 |
| < 600 | < 600 |  |  |  | Cn1nc(C(F)(F)F)cc1-c1ccc(NCc2c(F)cccc2F)c(F)c1 |
| 600 to 1200 | > 1200 |  |  |  | Cn1nc(C(F)(F)F)cc1-c1ccc(NCc2ccccc2F)c(F)c1 |
| 600 to 1200 | < 600 |  |  |  | Cn1nc(C(F)(F)F)cc1-c1ccc(NCc2c(F)cncc2F)c(F)c1 |
| 600 to 1200 | < 600 |  |  |  | Cn1nc(C(F)(F)F)cc1-c1c(F)cc(NCc2c(F)cccc2F)cc1F |
|  | < 600 | Max inh. <50% |  |  | Cn1nc(C(F)(F)F)cc1-c1c(F)cc(NCc2ccccc2F)cc1F |
|  | < 600 | — |  |  | Cn1nc(C(F)(F)F)cc1-c1c(F)cc(NCc2ccc(F)cc2F)cc1F |
| < 600 | < 600 |  |  |  | Cn1nc(C(F)(F)F)cc1-c1ccc(NCc2c(F)cccc2F)cc1 |
| < 600 | < 600 |  |  |  | Cn1nc(C(F)(F)F)cc1-c1ccc(NCc2ccccc2F)cc1 |
| < 600 | < 600 |  |  |  | Cn1nc(C(F)(F)F)cc1-c1ccc(NCc2ccc(F)cc2F)cc1 |
| < 600 | < 600 |  |  |  | Cn1nc(C(F)(F)F)cc1-c1ccc(NCc2c(F)cncc2F)cc1 |
| 600 to 1200 | < 600 |  |  |  | Fc1cccc(F)c1CNc1ccc(-n2nc(C(F)(F)F)cc2C(F)(F)F)cc1 |
| < 600 | < 600 |  |  |  | Fc1ccccc1CNc1ccc(-n2nc(C(F)(F)F)cc2C(F)(F)F)cc1 |
| 600 to 1200 | < 600 |  |  |  | Fc1cnccc1CNc1ccc(-n2nc(C(F)(F)F)cc2C(F)(F)F)cc1 |

| IC50 (Orai1/STIM1) [nM] | IC50 (RBL-2H3 cells; Table iii) [nM] | Orai1/STIM1 (IC50, μmol) (Orai1/STIM1) | RBL-2H3 (IC50, μmol) (RBL-2H3 cells; Table iii) | IC50 (RBL-2H3 cells; Table iv) [nM] | Compound |
| --- | --- | --- | --- | --- | --- |
| 600 to 1200 | < 600 |  |  |  | Fc1cncc(F)c1CNc1ccc(-n2nc(C(F)(F)F)cc2C(F)(F)F)cc1 |
| > 1200 | < 600 |  |  |  | Cc1cc2c(cc1-c1ccc(NCc3c(F)cccc3F)cc1)OC(F)(F)O2 |
| > 1200 | < 600 |  |  |  | Cc1cc2c(cc1-c1ccc(NCc3ccccc3F)cc1)OC(F)(F)O2 |
| < 600 | < 600 |  |  |  | Cc1cc2c(cc1-c1ccc(NCc3c(F)cncc3F)cc1)OC(F)(F)O2 |
| 600 to 1200 | < 600 |  |  |  | Cc1cc2c(cc1-c1ccc(NCc3ccncc3F)cc1)OC(F)(F)O2 |
| 600 to 1200 | < 600 |  |  |  | Cc1cc2c(cc1-c1ccc(NCc3cncc(F)c3)cc1)OC(F)(F)O2 |
|  | < 600 | Max inh. <50% |  |  | Cc1cc2c(cc1-c1ccc(NCc3c(C)cccc3F)cc1F)OC(F)(F)O2 |
|  |  | — | — |  | Cc1nnsc1CNc1ccc(-n2nc(C(F)(F)F)cc2C)cc1 |
| < 600 | < 600 |  |  |  | Cc1nc(C(F)(F)F)cn1-c1ccc(NCc2c(F)cc(F)cc2F)cc1F |
| < 600 | < 600 |  |  |  | Cc1nc(C(F)(F)F)cn1-c1ccc(NCc2c(F)cncc2F)cc1F |
| < 600 | < 600 |  |  |  | Cc1nc(C(F)(F)F)cn1-c1ccc(NCc2c(F)ccc(F)c2F)cc1F |
| < 600 | < 600 |  |  |  | Cc1nc(C(F)(F)F)cn1-c1ccc(NCc2ccccc2F)cc1 |
| < 600 | < 600 |  |  |  | Cc1nc(C(F)(F)F)cn1-c1ccc(NCc2c(F)cccc2F)cc1 |
| < 600 | < 600 |  |  |  | Cc1nc(C(F)(F)F)cn1-c1ccc(NCc2c(F)cc(F)cc2F)cc1 |
| < 600 | < 600 |  |  |  | Cc1nc(C(F)(F)F)cn1-c1ccc(NCc2c(F)ccc(F)c2F)cc1 |
| 600 to 1200 | < 600 |  |  |  | Cc1nn(C(F)F)cc1-c1ccc(NCc2ccccc2F)cc1 |
| < 600 | < 600 |  |  |  | Cc1nn(C(F)F)cc1-c1ccc(NCc2c(F)cccc2F)cc1 |
| < 600 | < 600 |  |  |  | Cc1nn(C(F)F)cc1-c1ccc(NCc2c(F)cc(F)cc2F)cc1 |
| < 600 | < 600 |  |  |  | Cc1cccc(F)c1CNc1ccc(-c2cn(C(F)F)nc2C)cc1 |
| < 600 | < 600 |  |  |  | Cc1nn(C(F)F)cc1-c1ccc(NCc2c(F)ccc(F)c2F)cc1 |
| 600 to 1200 | < 600 |  |  |  | Cc1ccccc1CNc1ccc(-c2cn(C(F)F)nc2C)c(F)c1 |

| IC50 (Orai1/STIM1) [nM] | IC50 (RBL-2H3 cells; Table iii) [nM] | Orai1/STIM1 (IC50, μmol) (Orai1/STIM1) | RBL-2H3 (IC50, μmol) (RBL-2H3 cells; Table iii) | IC50 (RBL-2H3 cells; Table iv) [nM] | Compound |
| --- | --- | --- | --- | --- | --- |
| < 600 | < 600 |  |  |  | Cc1nn(C(F)F)cc1-c1ccc(NCc2ccccc2F)cc1F |
| < 600 | < 600 |  |  |  | Cc1cccc(F)c1CNc1ccc(-c2cn(C(F)F)nc2C)c(F)c1 |
| < 600 | < 600 |  |  |  | Cc1nn(C(F)F)cc1-c1ccc(NCc2c(F)cccc2F)cc1F |
| < 600 | < 600 |  |  |  | Cc1nn(C(F)F)cc1-c1ccc(NCc2c(F)cc(F)cc2F)cc1F |
| < 600 | < 600 |  |  |  | CCn1nc(C(F)(F)F)cc1-c1ccc(NCc2ccccc2F)cc1 |
| < 600 | < 600 |  |  |  | CCn1nc(C(F)(F)F)cc1-c1ccc(NCc2c(F)cccc2F)cc1 |
| < 600 | < 600 |  |  |  | CCn1nc(C(F)(F)F)cc1-c1ccc(NCc2ccccc2F)cc1F |
| 600 to 1200 | < 600 |  |  |  | CCn1nc(C(F)(F)F)cc1-c1ccc(NCc2c(F)cccc2F)cc1F |
| 600 to 1200 | < 600 |  |  |  | Cc1ccccc1CNc1ccc(-c2nc(C(F)(F)F)sc2C)cc1 |
| < 600 | < 600 |  |  |  | Cc1sc(C(F)(F)F)nc1-c1ccc(NCc2ccccc2F)cc1 |
| 600 to 1200 | < 600 |  |  |  | Cc1cccc(F)c1CNc1ccc(-c2nc(C(F)(F)F)sc2C)cc1 |
| < 600 | < 600 |  |  |  | Cc1sc(C(F)(F)F)nc1-c1ccc(NCc2c(F)cccc2F)cc1 |
| < 600 | < 600 |  |  |  | Cc1sc(C(F)(F)F)nc1-c1ccc(NCc2c(F)cc(F)cc2F)cc1 |
| < 600 | < 600 |  |  |  | Cc1cc(F)ccc1CNc1ccc(-c2cc(C(F)(F)F)nn2C)c(F)c1 |
| 600 to 1200 | < 600 |  |  |  | Cc1cc(F)ccc1CNc1ccc(-n2nc(C(F)(F)F)cc2C)c(F)c1 |
| > 1200 | < 600 |  |  |  | Cc1cc(F)ccc1CNc1ccc(-n2cc(C(F)(F)F)nc2C)c(F)c1 |
| 600 to 1200 | < 600 |  |  |  | Cc1cc(F)ccc1CNc1ccc(-c2cc(C(F)F)nn2C)c(F)c1 |
| 600 to 1200 | < 600 |  |  |  | CCn1nc(C(F)(F)F)cc1-c1ccc(NCc2c(F)cc(F)cc2F)cc1F |
|  |  |  |  | < 600 | O=C(Nc1ccc(-n2nc(C(F)(F)F)cc2C(F)(F)F)cc1)c1ccccc1F |
